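Results reflect a 48-hour exposure of cells in 96-well plates to compound at five concentrations. TGI: concentration producing complete growth inhibition.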
Tests used:
Assay in all cases: DTP human tumour cell line panel, 48 h
[1] = tested on: 786-0 renal
[2] = tested on: BT-549 breast
[3] = tested on: CCRF-CEM leukemia
[4] = tested on: COLO 205 colon
[5] = tested on: HCT-116 colon
[6] = tested on: HOP-62 NSCLC
[7] = tested on: HOP-92 NSCLC
[8] = tested on: HS 578T breast
[9] = tested on: HT29 colon
[10] = tested on: K-562 leukemia
[11] = tested on: KM12 colon
[12] = tested on: LOX IMVI melanoma
[13] = tested on: M14 melanoma
[14] = tested on: MDA-MB-231 breast
[15] = tested on: MDA-N
[16] = tested on: MOLT-4 leukemia
[17] = tested on: NCI-H226 lung
[18] = tested on: NCI-H23 lung
[19] = tested on: NCI-H460 lung
[20] = tested on: NCI-H522 lung
[21] = tested on: NCI/ADR-RES ovarian
[22] = tested on: OVCAR-3 ovarian
[23] = tested on: OVCAR-4 ovarian
[24] = tested on: OVCAR-8 ovarian
[25] = tested on: PC-3 prostate
[26] = tested on: RXF 393 renal
[27] = tested on: SF-268 CNS
[28] = tested on: SF-295 CNS
[29] = tested on: SK-MEL-28 melanoma
[30] = tested on: SK-OV-3 ovarian
[31] = tested on: SN12C renal
[32] = tested on: SNB-19 CNS
[33] = tested on: SNB-75 CNS
[34] = tested on: SW-620 colon
[35] = tested on: TK-10 renal
[36] = tested on: U251 CNS
[37] = tested on: UACC-62 melanoma
[38] = tested on: A498 renal
[39] = tested on: A549 NSCLC
[40] = tested on: ACHN renal
[41] = tested on: CAKI-1 renal
[42] = tested on: DU-145 prostate
[43] = tested on: EKVX NSCLC
[44] = tested on: HCC-2998 colon
[45] = tested on: HL-60(TB) leukemia
[46] = tested on: IGROV1 ovarian
[47] = tested on: MALME-3M melanoma
[48] = tested on: MCF7 breast
[49] = tested on: MDA-MB-435
[50] = tested on: OVCAR-5 ovarian
[51] = tested on: RPMI-8226 leukemia
[52] = tested on: SF-539 CNS
[53] = tested on: SK-MEL-2 melanoma
[54] = tested on: SK-MEL-5 melanoma
[55] = tested on: SR leukemia
[56] = tested on: UACC-257 melanoma
[57] = tested on: UO-31 renal
[58] = tested on: HCT-15 colon
[59] = tested on: T-47D breast

Compound: CC(=Nc1ccc(Cl)c(Cl)c1)c1ccncc1
- TGI [1]: > 100 µM
- TGI [2]: > 100 µM
- TGI [3]: > 100 µM
- TGI [4]: > 100 µM
- TGI [5]: > 100 µM
- TGI [6]: > 100 µM
- TGI [7]: > 100 µM
- TGI [8]: > 100 µM
- TGI [9]: > 100 µM
- TGI [10]: > 100 µM
- TGI [11]: > 100 µM
- TGI [12]: > 100 µM
- TGI [13]: > 100 µM
- TGI [14]: > 100 µM
- TGI [15]: > 100 µM
- TGI [16]: > 100 µM
- TGI [17]: > 100 µM
- TGI [18]: > 100 µM
- TGI [19]: > 100 µM
- TGI [20]: > 100 µM
- TGI [21]: > 100 µM
- TGI [22]: > 100 µM
- TGI [23]: > 100 µM
- TGI [24]: > 100 µM
- TGI [25]: > 100 µM
- TGI [26]: > 100 µM
- TGI [27]: > 100 µM
- TGI [28]: > 100 µM
- TGI [29]: > 100 µM
- TGI [30]: > 100 µM
- TGI [31]: > 100 µM
- TGI [32]: > 100 µM
- TGI [33]: > 100 µM
- TGI [34]: > 100 µM
- TGI [35]: > 100 µM
- TGI [36]: > 100 µM
- TGI [37]: > 100 µM

Compound: C=C(Cl)C(C)(Cl)CCC(Cl)C(C)C (stereo not given)
- TGI [1]: > 100 µM
- TGI [38]: > 100 µM
- TGI [39]: > 100 µM
- TGI [40]: > 100 µM
- TGI [2]: > 100 µM
- TGI [41]: > 100 µM
- TGI [3]: > 100 µM
- TGI [4]: > 100 µM
- TGI [42]: > 100 µM
- TGI [43]: > 100 µM
- TGI [44]: > 100 µM
- TGI [5]: > 100 µM
- TGI [45]: > 100 µM
- TGI [6]: > 100 µM
- TGI [7]: > 100 µM
- TGI [8]: > 100 µM
- TGI [9]: > 100 µM
- TGI [46]: > 100 µM
- TGI [10]: > 100 µM
- TGI [11]: > 100 µM
- TGI [12]: 47.6 µM
- TGI [13]: > 100 µM
- TGI [47]: > 100 µM
- TGI [48]: > 100 µM
- TGI [14]: > 100 µM
- TGI [49]: > 100 µM
- TGI [15]: > 100 µM
- TGI [16]: > 100 µM
- TGI [17]: > 100 µM
- TGI [18]: > 100 µM
- TGI [19]: > 100 µM
- TGI [20]: > 100 µM
- TGI [21]: > 100 µM
- TGI [22]: > 100 µM
- TGI [23]: > 100 µM
- TGI [50]: > 100 µM
- TGI [25]: > 100 µM
- TGI [51]: > 100 µM
- TGI [26]: > 100 µM
- TGI [27]: > 100 µM
- TGI [28]: > 100 µM
- TGI [52]: > 100 µM
- TGI [53]: > 100 µM
- TGI [29]: > 100 µM
- TGI [54]: > 100 µM
- TGI [30]: > 100 µM
- TGI [31]: > 100 µM
- TGI [32]: > 100 µM
- TGI [33]: > 100 µM
- TGI [55]: 64.2 µM
- TGI [34]: > 100 µM
- TGI [35]: > 100 µM
- TGI [36]: > 100 µM
- TGI [56]: > 100 µM
- TGI [37]: > 100 µM
- TGI [57]: > 100 µM

Compound: COC(=O)Cn1c(=O)oc2nc(-c3ccccc3)cc(C(F)(F)F)c21
- TGI [1]: > 100 µM
- TGI [38]: > 100 µM
- TGI [39]: > 100 µM
- TGI [40]: > 100 µM
- TGI [2]: > 100 µM
- TGI [41]: > 100 µM
- TGI [4]: > 100 µM
- TGI [42]: > 100 µM
- TGI [43]: > 100 µM
- TGI [44]: > 100 µM
- TGI [5]: > 100 µM
- TGI [58]: > 100 µM
- TGI [6]: > 100 µM
- TGI [7]: 89.3 µM
- TGI [9]: > 100 µM
- TGI [46]: > 100 µM
- TGI [11]: > 100 µM
- TGI [13]: > 100 µM
- TGI [48]: > 100 µM
- TGI [14]: > 100 µM
- TGI [49]: > 100 µM
- TGI [15]: > 100 µM
- TGI [16]: 71.3 µM
- TGI [17]: > 100 µM
- TGI [18]: > 100 µM
- TGI [19]: > 100 µM
- TGI [20]: > 100 µM
- TGI [21]: > 100 µM
- TGI [22]: > 100 µM
- TGI [23]: > 100 µM
- TGI [50]: > 100 µM
- TGI [24]: > 100 µM
- TGI [25]: > 100 µM
- TGI [51]: 95.8 µM
- TGI [26]: > 100 µM
- TGI [27]: > 100 µM
- TGI [28]: > 100 µM
- TGI [52]: > 100 µM
- TGI [53]: > 100 µM
- TGI [29]: > 100 µM
- TGI [54]: 61.9 µM
- TGI [30]: > 100 µM
- TGI [31]: > 100 µM
- TGI [32]: > 100 µM
- TGI [33]: > 100 µM
- TGI [55]: > 100 µM
- TGI [34]: > 100 µM
- TGI [59]: > 100 µM
- TGI [35]: > 100 µM
- TGI [36]: > 100 µM
- TGI [56]: > 100 µM
- TGI [37]: > 100 µM
- TGI [57]: > 100 µM

Compound: NC(=O)Cn1c(=O)oc2cc(C(=O)CN3CCOCC3)ccc21
- TGI [1]: > 100 µM
- TGI [38]: > 100 µM
- TGI [41]: > 100 µM
- TGI [3]: > 100 µM
- TGI [4]: > 100 µM
- TGI [42]: > 100 µM
- TGI [43]: > 100 µM
- TGI [5]: > 100 µM
- TGI [45]: > 100 µM
- TGI [6]: > 100 µM
- TGI [8]: > 100 µM
- TGI [9]: > 100 µM
- TGI [46]: > 100 µM
- TGI [10]: > 100 µM
- TGI [11]: > 100 µM
- TGI [12]: > 100 µM
- TGI [13]: > 100 µM
- TGI [47]: > 100 µM
- TGI [48]: > 100 µM
- TGI [14]: > 100 µM
- TGI [49]: > 100 µM
- TGI [15]: > 100 µM
- TGI [16]: > 100 µM
- TGI [17]: > 100 µM
- TGI [21]: > 100 µM
- TGI [22]: > 100 µM
- TGI [50]: > 100 µM
- TGI [24]: > 100 µM
- TGI [25]: > 100 µM
- TGI [51]: > 100 µM
- TGI [26]: > 100 µM
- TGI [27]: > 100 µM
- TGI [28]: > 100 µM
- TGI [52]: > 100 µM
- TGI [53]: > 100 µM
- TGI [29]: > 100 µM
- TGI [54]: > 100 µM
- TGI [30]: > 100 µM
- TGI [31]: > 100 µM
- TGI [32]: > 100 µM
- TGI [33]: > 100 µM
- TGI [55]: > 100 µM
- TGI [34]: > 100 µM
- TGI [36]: > 100 µM

— PubChem BioAssay (NCI)
